From patent US20250002435A1, “ARYLATED FENCHONE DERIVATIVES, COMPOSITIONS COMPRISING THEM, PROCESSES FOR THEIR PREPARATION AND USES THEREOF” (priority 2021, published 2025)
“Also recorded” adds a separate entry of the source. Read-outs that look alike come from different tables or passages of the source.

What was measured:
mCB1R = mCB1R (Mus musculus (Mouse), UniProt P47746); assay: [3H]CP-55,940 competition displacement binding, crude membranes from mouse brain
Description: (§1) Affinity for Cannabinoid Receptors. The compounds were further characterized using a radioligand binding assay to determine their affinities for CB1R and CB2R based on each test compound's ability to displace the radiolabeled CB1R/CB2R agonist CP-55,940 from membranes prepared from a mouse brain (a source of CB1R) and membranes of cells expressing the human CB2R. […] Therefore, the compounds were assayed using membranes from CHO-K1 cells expressing the human CB2R (hCB2R).
(§2) Membranes from cells expressing human CB2R were purchased from Charles River, (Cat #A308; Ohio, US). Solutions of test compounds ranging from 0.1 nM to 10 mM were prepared in DMSO. The desired amount of membrane preparation was diluted with ice-cold assay buffer (50 mM Tris-HCl, 2.5 mM EDTA, 5 mM MgCl2, 0.1% BSA, pH 7.4) and was vortexed. […] The assays were incubated for 90 minutes at 30° C. and then immediately filtered on WHATMAN GF/B FilterPaper (Fired) using a Brandel M-24R Harvester followed by six washes with ice cold wash buffer (50 mM Tris-HCl, 2.5 mM EDTA, 5 mM MgCl2, 0.1% BSA, pH 7.4). Radioactivity was detected by adding the FilterPaper directly to the ULTIMA GOLD scintillation cocktail (PerkinElmer), incubation at 20° C. for 60 min and then counted using a Tri-Carb 4910TR liquid scintillation counter.

hCB2R [1] = target: T1, hCB2R (Homo sapiens (Human), UniProt P34972); assay: [3H]CP-55,940 competition displacement binding, membranes of CHO-K1 cells expressing human CB2R
Description: as §1, §2

hCB2R [2] = target: T1, hCB2R; assay: [35S]GTPγS binding assay, hCB2R CHO cell membranes; assay type: biochemical; settings: for functional activity at hCB2R (agonist / inverse agonist): [35S]GTPγS binding; for EC50: [35S]GTPγS binding to hCB2R, two independent experiments in triplicate; for E(max) %: percentage of HU-308 response at 1 μM
Description: Functional Characterization.
The method used for measuring agonist-stimulated binding of [^35S]GTPγS was based on a described protocol. The assays were carried out with GTPγS assay buffer (50 mM Tris HCl (pH 7.4), 0.2 mM EGTA, 9 mM MgCl2, 150 mM NaCl, 1 mg/ml BSA). Briefly, membranes (5 μg protein) were incubated in assay buffer containing 100 μM GDP, 0.05 nM [^35S]GTPγS, test compounds at various concentrations in siliconized glass tubes. Bound ligand was separated from free ligand by vacuum filtration. Nonspecific binding was determined using 10 μM GTPS. Basal binding was assayed in the absence of the ligand and in the presence of GDP.

[3] = >10 μM = Displacement of radioactive ligand detected at high concentrations competing ligand, read-out: Ki mCB1R
[4] = displacement of [3H]CP-55,940, NB = No binding detected at concentrations up to 10 μM, read-out: Ki (nM) mCB1R

T1 sequence (P34972 whole entry): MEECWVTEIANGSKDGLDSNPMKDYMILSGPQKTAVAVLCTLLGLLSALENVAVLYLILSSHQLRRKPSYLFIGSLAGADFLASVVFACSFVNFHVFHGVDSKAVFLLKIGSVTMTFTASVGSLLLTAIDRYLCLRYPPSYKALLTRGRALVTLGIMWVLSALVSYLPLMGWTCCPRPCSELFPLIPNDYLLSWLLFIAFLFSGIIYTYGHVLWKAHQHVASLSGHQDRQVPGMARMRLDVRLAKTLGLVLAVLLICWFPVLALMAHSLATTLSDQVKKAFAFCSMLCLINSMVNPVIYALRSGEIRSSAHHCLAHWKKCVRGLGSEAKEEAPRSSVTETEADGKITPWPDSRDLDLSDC
Sequence of mCB1R (P47746 whole entry): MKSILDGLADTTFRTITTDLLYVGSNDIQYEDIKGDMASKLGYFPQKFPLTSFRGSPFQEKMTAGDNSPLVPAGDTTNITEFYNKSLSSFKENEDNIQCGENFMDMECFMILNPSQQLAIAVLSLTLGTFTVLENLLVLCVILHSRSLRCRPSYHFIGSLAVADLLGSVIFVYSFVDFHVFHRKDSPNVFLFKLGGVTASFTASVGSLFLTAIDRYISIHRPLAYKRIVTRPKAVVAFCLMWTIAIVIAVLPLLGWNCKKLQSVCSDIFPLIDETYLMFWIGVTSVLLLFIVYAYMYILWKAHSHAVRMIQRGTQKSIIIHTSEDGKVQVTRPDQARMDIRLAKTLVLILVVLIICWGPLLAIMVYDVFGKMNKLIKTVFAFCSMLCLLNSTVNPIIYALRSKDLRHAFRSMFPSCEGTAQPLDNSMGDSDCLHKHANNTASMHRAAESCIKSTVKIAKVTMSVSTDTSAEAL

For CCCCCc1cc(OC)c(C2(O)C3(C)CCC(C3)C2(C)C)c(OC)c1 (single isomer, unassigned) [Compound 1a, 2-(2,6′-dimethoxy-4′-pentylphenyl)-1,3,3-trimethylbicyclo[2.2.1]heptan-2-ol], the Ki (mCB1R; [3]) was greater than 10000 nM, the “inhibition of [3H]CP-55,940 binding to mCB1R” value (mCB1R; in words) was “no measurable inhibition” and the Ki (hCB2R [1]; displacement of [3H]CP-55,940) was 47.7 nM. The “functional activity at hCB2R (agonist / inverse agonist)” value (hCB2R [2]) was “inverse agonist”, the EC50 (hCB2R [2]) was 1580 nM and the “E(max) %” value (hCB2R [2]) was 24.08%. The IC50 (hCB2R [2]; read-out: IC50, reduction of [35S]GTPγS binding in hCB2R membrane) was 1580 nM.
CCC(C)(C)c1ccc(OC)c(C2(O)C3(C)CCC(C3)C2(C)C)c1 (single isomer, unassigned) [Compound 3e, 2-(2′-methoxy-5′-(tert-pentyl)phenyl)-1,3,3-trimethylbicyclo[2.2.1]heptan-2-ol] gave a Ki (mCB1R; read-out: Ki (nM) mCB1R) greater than 10000 nM.
CCCCCCc1ccc(OC)c(C2(O)C3(C)CCC(C3)C2(C)C)c1OC (single isomer, unassigned) [Compound 2a, 2-(3′-hexyl-2,6′-dimethoxyphenyl)-1,3,3-trimethylbicyclo[2.2.1]heptan-2-ol] was tested, and the Ki (mCB1R; [4]) was greater than 10000 nM and the Ki (hCB2R [1]; displacement of [3H]CP-55,940) was 224 nM.
CCCCCc1ccc(OC)c(C2(O)C3(C)CCC(C3)C2(C)C)c1 (single isomer, unassigned) [Compound 3c, 2-(2′-methoxy-5′-pentylphenyl)-1,3,3-trimethylbicyclo[2.2.1]heptan-2-ol] gave a Ki (mCB1R; read-out: Ki (nM) mCB1R) greater than 10000 nM.
CCCCCCCCc1ccc(OC)c(C2(O)C3(C)CCC(C3)C2(C)C)c1 (single isomer, unassigned) [Compound 3h, 2-(2′-methoxy-5′-octylphenyl)-1,3,3-trimethylbicyclo[2.2.1]heptan-2-ol] gave a Ki (mCB1R; [4]) greater than 10000 nM.
In the case of CCCCCCC(C)(C)c1cc(OC)c(C2(O)C3(C)CCC(C3)C2(C)C)c(OC)c1F (single isomer, unassigned) [Compound 4d, 2-(3′-fluoro-2,6′-dimethoxy-4′-(2″-methyloctan-2″-yl)phenyl)-1,3,3-trimethyl-bicyclo[2.2.1]heptan-2-ol], the Ki (mCB1R; [4]) is reported as greater than 10000 nM, the Ki (hCB2R [1]; displacement of [3H]CP-55,940) is reported as 56.6 nM and the “functional activity at hCB2R (agonist / inverse agonist)” value (hCB2R [2]) is reported as “agonist”. The EC50 (hCB2R [2]) was 104 nM and the “E(max) %” value (hCB2R [2]) was 118.7%.
Work on CCCc1ccc(OC)c(C2(O)C3(C)CCC(C3)C2(C)C)c1 (single isomer, unassigned) [Compound 3b, 2-(2′-methoxy-5′-propylphenyl)-1,3,3-trimethylbicyclo[2.2.1]heptan-2-ol] yielded a Ki (mCB1R; [4]) greater than 10000 nM.
COc1cc(C)cc(OC)c1C1(O)C2(C)CCC(C2)C1(C)C (single isomer, unassigned) [Compound 1f, 2-(2,6′-dimethoxy-4′-methylphenyl)-1,3,3-trimethylbicyclo[2.2.1]-heptan-2-ol] was tested, and the Ki (mCB1R; [4]) was greater than 10000 nM and the Ki (hCB2R [1]) was 233 nM.
Compound CCCCCc1cc(OC)c(C2(O)C3(C)CCC(C3)C2(C)C)c(OC)c1F (single isomer, unassigned) [Compound 4a, 2-(3′-fluoro-2′,6′-dimethoxy-4′-pentylphenyl)-1,3,3-trimethylbicyclo[2.2.1]hept-an-2-ol] has a Ki (mCB1R; [3]) greater than 10000 nM.
In the case of CCCCCCC(C)(C)c1cc(OC)c([C@@H]2C=C(CO)[C@@H]3C[C@H]2C3(C)C)c(OC)c1 [HU-308, reference compound], the Ki (mCB1R) is reported as greater than 10000 nM, the “functional activity at hCB2R (agonist / inverse agonist)” value (hCB2R [2]) is reported as “agonist” and the “E(max) %” value (hCB2R [2]) is reported as 100%.
With CCCCCCC(C)(C)c1cc(OC)c([C@@]2(O)C3(C)CCC(C3)C2(C)C)c(OC)c1 (stereo partly drawn) [Compound 1c, 2-(2,6′-dimethoxy-4′-(2″-methyloctan-2″-yl)phenyl)-1,3,3-trimethyl-bicyclo[2.2.1]heptan-2-ol] the Ki (mCB1R; [4]) was greater than 10000 nM, the Ki (hCB2R [1]; displacement of [3H]CP-55,940) was 56.8 nM and the “functional activity at hCB2R (agonist / inverse agonist)” value (hCB2R [2]) was “agonist”. The EC50 (hCB2R [2]) was 121 nM and the “E(max) %” value (hCB2R [2]) was 87.15%.
CCCCCCC(C)(C)c1cc(O)c(C2(O)C3(C)CCC(C3)C2(C)C)c(OC)c1 (stereo not drawn) [Compound 5c, 2-(2′-hydroxy-6′-methoxy-4′-(2″-methyloctan-2″-yl)phenyl)-1,3,3-trimethyl-bicyclo[2.2.1]heptan-2-ol] showed a Ki (mCB1R; [4]) greater than 10000 nM and a Ki (hCB2R [1]; displacement of [3H]CP-55,940) of 107 nM.
CCCCCCc1ccc(OC)c(C2(O)C3(C)CCC(C3)C2(C)C)c1OC (single isomer, unassigned) [Compound 2b, 2-(3′-hexyl-2,6′-dimethoxyphenyl)-1,3,3-trimethylbicyclo[2.2.1]heptan-2-ol] was tested, and the Ki (mCB1R; [3]) was greater than 10000 nM, the Ki (hCB2R [1]; displacement of [3H]CP-55,940) was 73.4 nM and the “functional activity at hCB2R (agonist / inverse agonist)” value (hCB2R [2]) was “weakly stimulated; also recorded: agonist”. For the same compound, the “E(max) %” value (hCB2R [2]) was 46.2%.
Compound CCCCCCCCc1ccc(OC)c(C2(O)C3(C)CCC(C3)C2(C)C)c1 (single isomer, unassigned) [Compound 3g, 2-(2′-methoxy-5′-octylphenyl)-1,3,3-trimethylbicyclo[2.2.1]heptan-2-ol] has a Ki (mCB1R; read-out: Ki (nM) mCB1R) greater than 10000 nM.
For CCCCCCC(C)(C)c1cc(OC)c(C2(O)C3(C)CCC(C3)C2(C)C)c(OC)c1F (single isomer, unassigned) [Compound 4c, 2-(3′-fluoro-2,6′-dimethoxy-4′-(2″-methyloctan-2″-yl)phenyl)-1,3,3-trimethyl-bicyclo[2.2.1]heptan-2-ol], the Ki (mCB1R; [4]) was greater than 10000 nM and the Ki (hCB2R [1]; displacement of [3H]CP-55,940) was 438 nM.
In the case of CCCCCc1ccc(OC)c(C2(O)C3(C)CCC(C3)C2(C)C)c1 (single isomer, unassigned) [Compound 3d, 2-(2′-methoxy-5′-pentylphenyl)-1,3,3-trimethylbicyclo[2.2.1]heptan-2-ol], the Ki (mCB1R; [4]) is reported as greater than 10000 nM.
In the case of COc1cc(C)cc(OC)c1C1(O)C2(C)CCC(C2)C1(C)C (single isomer, unassigned) [Compound 1e, 2-(2,6′-dimethoxy-4′-methylphenyl)-1,3,3-trimethylbicyclo[2.2.1]-heptan-2-ol], the Ki (mCB1R; read-out: Ki (nM) mCB1R) is reported as greater than 10000 nM.
CCCc1ccc(OC)c(C2(O)C3(C)CCC(C3)C2(C)C)c1 (single isomer, unassigned) [Compound 3a, 2-(2′-methoxy-5′-propylphenyl)-1,3,3-trimethylbicyclo[2.2.1]heptan-2-ol] was tested, and the Ki (mCB1R; read-out: Ki (nM) mCB1R) was greater than 10000 nM.
In the case of CCC(C)(C)c1ccc(OC)c(C2(O)C3(C)CCC(C3)C2(C)C)c1 (single isomer, unassigned) [Compound 3f, 2-(2′-methoxy-5′-(tert-pentyl)phenyl)-1,3,3-trimethylbicyclo[2.2.1]heptan-2-ol], the Ki (mCB1R; [4]) is reported as greater than 10000 nM.
CCCCCc1cc(OC)c(C2(O)C3(C)CCC(C3)C2(C)C)c(OC)c1F (single isomer, unassigned) [Compound 4b, 2-(3′-fluoro-2′,6′-dimethoxy-4′-pentylphenyl)-1,3,3-trimethylbicyclo[2.2.1]hept-an-2-ol] was tested, and the Ki (mCB1R; [3]) was greater than 10000 nM, the “functional activity at hCB2R (agonist / inverse agonist)” value (hCB2R [2]) was “agonist” and the EC50 (hCB2R [2]) was 305 nM.
